Results reported in patent US9255295B2, “Method for evaluating the sensitizing potential of a test compound” (IMMUNOSEARCH, priority 2010, dated 2016).
Where two headings read alike, the source gives them in different places.

Test system: ARE gene family (AKR1B10, AKR1C1, AKR1C2, CYP1B1, FTH1P, FTL, G6PD, GCLM, NQO2, SLC7A11, TXNRD1, UGT1A1, UGT1A9, YWHAZ, CD36, CYP1A1, GCLC, HMOX1, NQO1, PSME2 …)
Conditions: human

## Oc1ccc(O)cc1 [Hydroquinone]
15 min, 0.1 %
  AHR expression compared to control: 0.8
  ARE >1.3 (NUMBER OF GENES): 5
  GCLM expression compared to control: 0.7
  NQO2 expression compared to control: 0.9
  SLC7A11 expression compared to control: 1.3
  TOTAL ARE (NUMBER OF GENES): 5
  UGT1A9 expression compared to control: 0.8
15 min, 1 %
  AHR expression compared to control: 0.6
  ARE >1.3 (NUMBER OF GENES): 9
  GCLM expression compared to control: 1.8
  NQO2 expression compared to control: 1.4
  SLC7A11 expression compared to control: 1.5
  TOTAL ARE (NUMBER OF GENES): 9
  UGT1A9 expression compared to control: 1.5
15 min, 10 %
  AHR expression compared to control: 0.6
  ARE >1.3 (NUMBER OF GENES): 13
  GCLM expression compared to control: 2.0
  NQO2 expression compared to control: 1.5
  SLC7A11 expression compared to control: 1.6
  TOTAL ARE (NUMBER OF GENES): 13
  UGT1A9 expression compared to control: 1.3
15 min, 50 %
  ARE >1.3 (NUMBER OF GENES): 15
  TOTAL ARE (NUMBER OF GENES): 15
6 h, 0.1 %
  AKR1B10 expression compared to control: 0.9
  AKR1C1 expression compared to control: 1.2
  AKR1C2 expression compared to control: 0.7
  CD36 expression compared to control: 0.7
  CYP1A1 expression compared to control: 8.0
  CYP1B1 expression compared to control: 1.8
  FTH1P expression compared to control: 1.2
  FTL expression compared to control: 1.5
  GCLC expression compared to control: 1.3
  HMOX1 expression compared to control: 1.1
  NQO1 expression compared to control: 1.2
  S100A8 expression compared to control: 1.1
  TXNRD1 expression compared to control: 2.3
  UGT1A1 expression compared to control: 1.7
6 h, 1 %
  AKR1B10 expression compared to control: 1.0
  AKR1C1 expression compared to control: 2.0
  AKR1C2 expression compared to control: 1.3
  CD36 expression compared to control: 0.7
  CYP1A1 expression compared to control: 15.4
  CYP1B1 expression compared to control: 7.1
  FTH1P expression compared to control: 1.3
  FTL expression compared to control: 1.5
  GCLC expression compared to control: 1.3
  HMOX1 expression compared to control: 1.0
  NQO1 expression compared to control: 1.3
  S100A8 expression compared to control: 1.4
  TXNRD1 expression compared to control: 2.1
  UGT1A1 expression compared to control: 1.4
6 h, 10 %
  AKR1B10 expression compared to control: 1.0
  AKR1C1 expression compared to control: 2.6
  AKR1C2 expression compared to control: 1.8
  CD36 expression compared to control: 0.7
  CYP1A1 expression compared to control: 33.2
  CYP1B1 expression compared to control: 17.1
  FTH1P expression compared to control: 1.4
  FTL expression compared to control: 1.9
  GCLC expression compared to control: 1.5
  HMOX1 expression compared to control: 1.2
  NQO1 expression compared to control: 1.5
  S100A8 expression compared to control: 1.4
  TXNRD1 expression compared to control: 2.6
  UGT1A1 expression compared to control: 1.5
6 h, 50 %
  AHR expression compared to control: 0.9
  AKR1B10 expression compared to control: 1.1
  AKR1C1 expression compared to control: 3.5
  AKR1C2 expression compared to control: 3.7
  CD36 expression compared to control: 0.8
  CYP1A1 expression compared to control: 57.8
  CYP1B1 expression compared to control: 49.5
  FTH1P expression compared to control: 2.1
  FTL expression compared to control: 3.5
  GCLC expression compared to control: 2.4
  GCLM expression compared to control: 3.8
  HMOX1 expression compared to control: 3.5
  NQO1 expression compared to control: 2.8
  NQO2 expression compared to control: 2.0
  S100A8 expression compared to control: 1.4
  SLC7A11 expression compared to control: 5.4
  TXNRD1 expression compared to control: 7.9
  UGT1A1 expression compared to control: 1.9
  UGT1A9 expression compared to control: 1.7
